The values below come from patent US7745437B2, “Compounds and compositions as protein kinase inhibitors” (IRM LLC, priority 2004, dated 2010).

Holding throughout (assay): Upstate KinaseProfiler radio-enzymatic filter binding assay
What all share (format): biochemical

The target in assay [1] is T1, lck (Homo sapiens, UniProt P06239).
T1 construct: purchased Upstate
To be noted: at a concentration of 10 μM; read-out: percentage inhibition of lck. How it is done:
(§1) Compounds of the invention are assessed for their ability to inhibit individual members of the kinase panel. The compounds are tested in duplicates at a final concentration of 10 μM following this generic protocol. Note that the kinase buffer composition and the substrates vary for the different kinases included in the “Upstate KinaseProfiler™” panel. Kinase buffer (2.5 μL, 10×—containing MnCl2 when required), active kinase (0.001-0.01 Units; 2.5 μL), specific or Poly(Glu4-Tyr) peptide (5-500 μM or 0.01 mg/ml) in kinase buffer and kinase buffer (50 μM; 5 μL) are mixed in an eppendorf on ice, A Mg/ATP mix (10 μL; 67.5 (or 33.75) mM MgCl2, 450 (or 225) μM ATP and 1 μCi/μl [γ-^32P]-ATP (3000 Ci/mmol)) is added and the reaction is incubated at about 30° C. for about 10 minutes. The reaction mixture is spotted (20 μL) onto a 2 cm×2 cm P81 (phosphocellulose, for positively charged peptide substrates) or Whatman No. 1 (for Poly (Glu4-Tyr) peptide substrate) paper square. The assay squares are washed 4 times, for 5 minutes each, with 0.75% phosphoric acid and washed once with acetone for 5 minutes. The assay squares are transferred to a scintillation vial, 5 ml scintillation cocktail are added and ^32P incorporation (cpm) to the peptide substrate is quantified with a Beckman scintillation counter. Percentage inhibition is calculated for each reaction.

Assay [2] concerns the target T2, SAPK2α (Homo sapiens, UniProt Q16539).
T2 construct: purchased Upstate
The following applies: at a concentration of 10 μM; read-out: percentage inhibition of SAPK2α. On the procedure:
as §1

Assay [3] deals with T3, Tie2 (Homo sapiens, UniProt Q02763).
T3 construct: purchased Upstate
The following applies: at a concentration of 10 μM; read-out: percentage inhibition of Tie2. On the procedure:
as §1

In assay [4] the target is T4, JNK2α2 (Homo sapiens, UniProt P45984).
T4 construct: purchased Upstate
To be noted: at a concentration of 10 μM; read-out: percentage inhibition of JNK2α2. On the procedure:
as §1

The target of assay [5] is T5, MKK6 (Homo sapiens, UniProt P52564).
T5 construct: purchased Upstate
T5 sequence (P52564 1-334): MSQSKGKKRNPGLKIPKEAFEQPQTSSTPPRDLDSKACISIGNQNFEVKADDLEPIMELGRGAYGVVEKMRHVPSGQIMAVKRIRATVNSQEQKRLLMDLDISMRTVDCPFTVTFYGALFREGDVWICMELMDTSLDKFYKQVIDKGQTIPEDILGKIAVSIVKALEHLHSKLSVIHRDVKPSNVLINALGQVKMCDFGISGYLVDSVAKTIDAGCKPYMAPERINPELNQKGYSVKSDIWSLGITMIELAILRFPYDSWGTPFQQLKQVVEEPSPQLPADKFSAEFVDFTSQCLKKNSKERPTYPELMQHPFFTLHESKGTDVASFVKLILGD
The following applies: at a concentration of 10 μM; read-out: percentage inhibition of MKK6. On the procedure: as §1

Assay [6] concerns the target T6, c-RAF (Homo sapiens, UniProt P04049).
T6 construct: purchased Upstate
The following applies: at a concentration of 10 μM; read-out: percentage inhibition of c-RAF. On the procedure:
as §1

Assay [7] addresses T7, wild-type Abl (Homo sapiens, UniProt P00519).
T7 construct: purchased Upstate
The following applies: at a concentration of 10 μM; read-out: percentage inhibition of wild-type Abl. How it is done: as §1

Assay [8] concerns the target T8, c-SRC (Homo sapiens, UniProt P12931).
T8 construct: purchased Upstate
The following applies: at a concentration of 10 μM; read-out: percentage inhibition of c-SRC. On the procedure:
as §1

For assay [9], the target named is T9, TrkB (Homo sapiens, UniProt Q16620).
T9 construct: purchased Upstate
To be noted: at a concentration of 10 μM; read-out: percentage inhibition of TrkB. On the procedure: as §1

The target of assay [10] is T10, PDGFRα (Homo sapiens, UniProt P16234).
T10 construct: purchased Upstate
The following applies: at a concentration of 10 μM; read-out: percentage inhibition of PDGFRα. How it is done:
as §1

In assay [11] the target is T11, SAPK2β (Homo sapiens, UniProt Q15759).
T11 construct: purchased Upstate
To be noted: at a concentration of 10 μM; read-out: percentage inhibition of SAPK2β. On the procedure:
as §1

T9 sequence (Q16620 32-822): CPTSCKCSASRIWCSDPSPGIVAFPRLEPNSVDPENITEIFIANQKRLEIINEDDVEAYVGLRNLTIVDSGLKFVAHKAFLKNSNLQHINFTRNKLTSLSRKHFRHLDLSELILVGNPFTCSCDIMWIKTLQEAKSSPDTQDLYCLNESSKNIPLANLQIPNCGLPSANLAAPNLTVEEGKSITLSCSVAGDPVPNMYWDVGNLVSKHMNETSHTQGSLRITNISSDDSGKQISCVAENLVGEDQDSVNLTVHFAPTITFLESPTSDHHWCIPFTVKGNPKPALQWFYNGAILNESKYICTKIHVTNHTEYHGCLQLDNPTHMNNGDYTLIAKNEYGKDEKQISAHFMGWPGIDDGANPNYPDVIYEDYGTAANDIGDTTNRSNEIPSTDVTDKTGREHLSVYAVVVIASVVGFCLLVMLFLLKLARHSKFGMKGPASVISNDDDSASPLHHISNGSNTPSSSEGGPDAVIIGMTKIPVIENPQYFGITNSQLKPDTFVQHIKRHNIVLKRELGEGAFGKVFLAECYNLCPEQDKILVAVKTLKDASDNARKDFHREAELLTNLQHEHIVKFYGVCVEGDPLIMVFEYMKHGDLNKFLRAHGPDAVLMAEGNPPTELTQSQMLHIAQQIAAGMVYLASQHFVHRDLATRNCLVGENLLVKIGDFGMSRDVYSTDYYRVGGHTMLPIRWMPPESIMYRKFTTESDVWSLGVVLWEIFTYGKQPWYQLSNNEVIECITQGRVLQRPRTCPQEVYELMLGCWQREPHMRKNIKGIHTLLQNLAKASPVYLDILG
T11 sequence (Q15759 whole entry): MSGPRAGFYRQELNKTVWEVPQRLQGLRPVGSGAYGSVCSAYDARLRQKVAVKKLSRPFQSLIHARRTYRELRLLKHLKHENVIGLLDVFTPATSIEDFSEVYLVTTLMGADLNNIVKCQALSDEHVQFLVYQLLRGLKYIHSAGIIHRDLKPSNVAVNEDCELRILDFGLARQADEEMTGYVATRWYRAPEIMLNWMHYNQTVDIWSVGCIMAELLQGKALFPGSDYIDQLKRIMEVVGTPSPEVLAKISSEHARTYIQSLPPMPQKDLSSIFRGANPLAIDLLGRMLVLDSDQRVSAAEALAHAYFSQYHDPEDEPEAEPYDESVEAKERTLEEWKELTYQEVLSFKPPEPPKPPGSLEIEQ
T10 sequence (P16234 24-1089): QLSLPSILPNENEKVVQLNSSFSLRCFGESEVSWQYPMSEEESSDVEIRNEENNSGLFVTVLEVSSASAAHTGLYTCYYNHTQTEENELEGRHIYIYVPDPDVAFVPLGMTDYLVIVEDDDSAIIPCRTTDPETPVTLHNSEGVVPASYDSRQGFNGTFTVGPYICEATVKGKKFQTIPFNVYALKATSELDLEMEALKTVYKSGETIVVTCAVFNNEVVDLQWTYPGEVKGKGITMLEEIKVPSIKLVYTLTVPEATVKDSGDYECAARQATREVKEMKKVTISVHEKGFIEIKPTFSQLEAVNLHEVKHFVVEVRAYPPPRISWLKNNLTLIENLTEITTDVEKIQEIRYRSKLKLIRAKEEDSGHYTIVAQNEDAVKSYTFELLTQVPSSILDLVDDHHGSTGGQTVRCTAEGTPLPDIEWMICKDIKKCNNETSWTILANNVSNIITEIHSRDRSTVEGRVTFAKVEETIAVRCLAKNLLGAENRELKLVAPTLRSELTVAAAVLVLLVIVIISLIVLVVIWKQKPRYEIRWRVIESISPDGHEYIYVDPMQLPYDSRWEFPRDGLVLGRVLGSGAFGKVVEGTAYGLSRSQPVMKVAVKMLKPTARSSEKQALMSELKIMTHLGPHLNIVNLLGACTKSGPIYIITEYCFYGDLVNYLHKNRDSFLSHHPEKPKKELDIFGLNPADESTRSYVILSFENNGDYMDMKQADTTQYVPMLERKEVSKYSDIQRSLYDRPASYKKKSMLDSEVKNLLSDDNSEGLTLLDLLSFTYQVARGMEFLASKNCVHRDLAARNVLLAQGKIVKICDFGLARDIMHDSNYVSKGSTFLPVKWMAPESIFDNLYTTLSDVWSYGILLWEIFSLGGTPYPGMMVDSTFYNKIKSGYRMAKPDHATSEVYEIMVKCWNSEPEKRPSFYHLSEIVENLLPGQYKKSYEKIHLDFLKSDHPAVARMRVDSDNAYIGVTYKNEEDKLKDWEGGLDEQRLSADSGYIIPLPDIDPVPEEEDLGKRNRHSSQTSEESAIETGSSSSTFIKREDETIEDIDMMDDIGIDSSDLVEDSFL
T8 sequence (P12931 whole entry): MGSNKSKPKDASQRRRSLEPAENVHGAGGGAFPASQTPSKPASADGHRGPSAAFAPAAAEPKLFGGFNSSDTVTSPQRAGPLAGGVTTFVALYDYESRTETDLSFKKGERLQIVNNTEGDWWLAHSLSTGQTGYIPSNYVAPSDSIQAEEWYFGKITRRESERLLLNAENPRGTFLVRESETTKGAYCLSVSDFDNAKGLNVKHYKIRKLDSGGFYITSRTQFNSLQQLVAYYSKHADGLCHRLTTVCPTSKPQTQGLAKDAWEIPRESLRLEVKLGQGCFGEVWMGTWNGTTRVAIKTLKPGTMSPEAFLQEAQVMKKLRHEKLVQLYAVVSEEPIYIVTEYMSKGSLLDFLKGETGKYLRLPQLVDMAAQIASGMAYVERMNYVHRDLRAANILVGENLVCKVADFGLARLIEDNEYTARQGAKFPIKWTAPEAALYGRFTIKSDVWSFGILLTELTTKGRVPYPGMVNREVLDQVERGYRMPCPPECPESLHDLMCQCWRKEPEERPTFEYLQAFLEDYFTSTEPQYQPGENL
T3 sequence (Q02763 23-1124): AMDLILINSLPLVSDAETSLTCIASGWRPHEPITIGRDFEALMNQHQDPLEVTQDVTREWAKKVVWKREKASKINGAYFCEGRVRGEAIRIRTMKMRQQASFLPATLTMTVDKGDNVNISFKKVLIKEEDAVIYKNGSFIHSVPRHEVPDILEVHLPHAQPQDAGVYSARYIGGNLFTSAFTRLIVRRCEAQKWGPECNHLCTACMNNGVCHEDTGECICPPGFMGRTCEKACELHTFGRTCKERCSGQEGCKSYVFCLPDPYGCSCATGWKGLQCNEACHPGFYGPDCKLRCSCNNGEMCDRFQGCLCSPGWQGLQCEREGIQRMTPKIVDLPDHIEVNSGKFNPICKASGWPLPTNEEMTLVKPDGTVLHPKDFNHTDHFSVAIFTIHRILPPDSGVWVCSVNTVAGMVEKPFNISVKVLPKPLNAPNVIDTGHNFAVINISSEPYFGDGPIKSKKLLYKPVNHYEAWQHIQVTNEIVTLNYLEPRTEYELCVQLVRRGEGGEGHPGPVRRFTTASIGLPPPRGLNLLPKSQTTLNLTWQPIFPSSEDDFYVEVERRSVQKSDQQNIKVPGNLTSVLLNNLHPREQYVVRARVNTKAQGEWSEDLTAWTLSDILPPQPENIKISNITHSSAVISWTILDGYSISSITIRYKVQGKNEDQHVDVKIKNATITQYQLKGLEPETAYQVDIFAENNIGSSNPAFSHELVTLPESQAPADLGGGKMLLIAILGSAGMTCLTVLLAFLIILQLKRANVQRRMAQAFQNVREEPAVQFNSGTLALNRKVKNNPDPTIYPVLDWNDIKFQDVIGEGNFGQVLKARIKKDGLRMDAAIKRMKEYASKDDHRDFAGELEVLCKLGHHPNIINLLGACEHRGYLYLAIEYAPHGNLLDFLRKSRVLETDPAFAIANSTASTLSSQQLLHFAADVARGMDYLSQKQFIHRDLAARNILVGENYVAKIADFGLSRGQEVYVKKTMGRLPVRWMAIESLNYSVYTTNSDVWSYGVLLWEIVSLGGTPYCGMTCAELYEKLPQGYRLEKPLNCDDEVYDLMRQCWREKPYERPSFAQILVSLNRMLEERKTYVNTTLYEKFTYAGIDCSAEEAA
T6 sequence (P04049 whole entry): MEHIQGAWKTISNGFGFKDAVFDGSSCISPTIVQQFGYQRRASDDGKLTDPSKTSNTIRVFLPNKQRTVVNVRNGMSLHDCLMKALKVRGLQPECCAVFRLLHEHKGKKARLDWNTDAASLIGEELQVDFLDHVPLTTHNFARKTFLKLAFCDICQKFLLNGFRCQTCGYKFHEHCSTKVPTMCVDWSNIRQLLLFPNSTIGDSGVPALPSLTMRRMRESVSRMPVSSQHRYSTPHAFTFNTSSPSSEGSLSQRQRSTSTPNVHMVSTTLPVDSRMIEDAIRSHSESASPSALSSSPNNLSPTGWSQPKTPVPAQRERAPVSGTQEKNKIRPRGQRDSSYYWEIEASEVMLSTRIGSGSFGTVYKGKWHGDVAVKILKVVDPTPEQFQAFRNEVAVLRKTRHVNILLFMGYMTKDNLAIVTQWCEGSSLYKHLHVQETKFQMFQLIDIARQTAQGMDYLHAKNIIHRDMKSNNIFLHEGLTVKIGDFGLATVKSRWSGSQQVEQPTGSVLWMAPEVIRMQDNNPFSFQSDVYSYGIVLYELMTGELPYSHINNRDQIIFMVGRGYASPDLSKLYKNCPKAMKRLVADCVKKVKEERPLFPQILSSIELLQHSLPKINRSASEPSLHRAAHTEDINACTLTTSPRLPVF
T2 sequence (Q16539 whole entry): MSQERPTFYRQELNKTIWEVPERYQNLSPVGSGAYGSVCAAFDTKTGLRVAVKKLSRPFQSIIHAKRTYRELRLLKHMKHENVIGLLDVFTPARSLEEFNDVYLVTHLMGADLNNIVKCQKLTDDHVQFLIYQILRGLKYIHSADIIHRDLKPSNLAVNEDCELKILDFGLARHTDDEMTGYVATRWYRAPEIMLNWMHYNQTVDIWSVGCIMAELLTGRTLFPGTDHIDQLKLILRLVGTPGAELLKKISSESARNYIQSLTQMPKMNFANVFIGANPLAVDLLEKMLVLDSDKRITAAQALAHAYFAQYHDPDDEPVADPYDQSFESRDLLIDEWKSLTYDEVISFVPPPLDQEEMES

As for `Cc1ccc(NC(=O)c2cccc(C(F)(F)F)c2)cc1Nc1nccn1-c1cc(NCCN2CCOCC2)ncn1` [Compound 3, N-(4-Methyl-3-{1-[6-(2-morpholin-4-yl-ethylamino)-pyrimidin-4-yl]-1H-imidazol-2-ylamino}-phenyl)-3-trifluoromethyl-benzamide], the inhibition at 10 µM in [1] is 100%; in assay [2], 100%; in assay [3] it was 99%; in [4], 97%; in assay [5], 100%; in [6] it was 100%. In addition, the inhibition at 10 µM in [7] was 97%; in [8] it was 99%; in assay [9], 97%; in assay [10], 97%; in assay [11] it was 100%.

For orientation: inhibition means how much of the control response was suppressed.
